From patent US11981673B1, “7-isopropyl 1,2-dimethyl 3-(substituted benzoyl)indolizine-1,2,7 tricarboxylates as adenosine receptor active compounds” (KING FAISAL UNIVERSITY, priority 2023, dated 2024)

What was measured:
[1] = biological target: T1, human A1R (Homo sapiens, UniProt P30542); assay: Displacement of specific [3H]-CCPA binding at human A1R expressed in CHO cells; settings: [3H]-CCPA displacement, means ± SE, read-out: hA1R (Ki nM)
T1 construct: expressed in transfected cells; host or cells: CHO cells
T1 sequence (P30542 1-326): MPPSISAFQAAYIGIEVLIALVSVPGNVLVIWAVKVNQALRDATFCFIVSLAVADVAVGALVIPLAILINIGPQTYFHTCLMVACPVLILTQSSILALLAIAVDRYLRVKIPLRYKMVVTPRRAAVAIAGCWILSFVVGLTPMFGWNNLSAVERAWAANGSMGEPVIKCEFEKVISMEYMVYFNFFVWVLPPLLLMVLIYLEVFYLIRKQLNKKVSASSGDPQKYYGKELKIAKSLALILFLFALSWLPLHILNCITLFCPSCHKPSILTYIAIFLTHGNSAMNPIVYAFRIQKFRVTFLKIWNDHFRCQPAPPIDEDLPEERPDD

[2] = biological target: T2, human A2AR (Homo sapiens, UniProt P29274); assay: Displacement of specific [3H]-NECA binding at human A2AR expressed in CHO cells; settings: [3H]-NECA displacement, means ± SE, read-out: hA2AR (Ki nM)
T2 construct: expressed in transfected cells; host or cells: CHO cells
T2 sequence (P29274 whole entry): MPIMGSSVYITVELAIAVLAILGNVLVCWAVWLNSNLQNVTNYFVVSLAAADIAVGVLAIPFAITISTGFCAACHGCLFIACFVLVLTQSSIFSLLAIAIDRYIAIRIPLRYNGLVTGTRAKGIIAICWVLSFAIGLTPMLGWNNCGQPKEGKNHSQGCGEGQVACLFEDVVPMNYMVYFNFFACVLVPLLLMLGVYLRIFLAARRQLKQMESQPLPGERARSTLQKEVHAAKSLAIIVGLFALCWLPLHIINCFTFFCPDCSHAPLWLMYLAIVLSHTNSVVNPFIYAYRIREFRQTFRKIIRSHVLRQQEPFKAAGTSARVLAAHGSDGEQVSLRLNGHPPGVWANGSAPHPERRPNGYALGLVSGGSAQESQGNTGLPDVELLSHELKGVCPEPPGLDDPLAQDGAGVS

[3] = biological target: T3, hA2BR (Homo sapiens, UniProt P29275); assay: Inhibition of NECA-stimulated adenylyl cyclase activity in CHO cells expressing hA2BR (GloSensor cAMP assay); assay type: cell-based; settings: means ± SE
T3 construct: expressed in transfected cells; host or cells: cells stably expressing the receptor and the GloSensor biosensor (CHO)
T3 sequence (P29275 1-332): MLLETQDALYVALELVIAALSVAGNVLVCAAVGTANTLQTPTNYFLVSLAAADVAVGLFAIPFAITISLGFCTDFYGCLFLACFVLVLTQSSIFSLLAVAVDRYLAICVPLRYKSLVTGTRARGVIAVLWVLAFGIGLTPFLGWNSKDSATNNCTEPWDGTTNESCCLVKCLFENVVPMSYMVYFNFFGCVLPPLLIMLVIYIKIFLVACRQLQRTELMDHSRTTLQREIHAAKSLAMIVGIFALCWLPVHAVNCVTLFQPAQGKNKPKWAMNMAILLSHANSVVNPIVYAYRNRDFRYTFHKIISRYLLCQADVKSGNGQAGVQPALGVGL
Method: The activity of compounds understudy was evaluated using the GloSensor™ (Promega Corporation) cAMP assay, which is a new non-radioactive method offering a simple approach to monitor GPCR activity through change in the intracellular cAMP concentration. This assay uses a mutant form of Photinus pyralis luciferase into which a cAMP-binding protein moiety has been inserted. The binding with cAMP triggers a biosensor conformational change that leads to an increase of light output allowing to evaluate the activity of ligands at the receptor under study. Following pre-equilibration with a substrate, cells stably expressing both the receptor of interest and the biosensor can be used to evaluate GPCR function enabling easy kinetic measurements of cAMP accumulation or turnover in living cells.
The antagonist profile of the compounds on A2BR was evaluated by assessing their ability to counteract the agonist NECA-induced increase of cAMP accumulation. After 2 hours of equilibration in reaction medium cells were incubated in 384 well plate (10 minutes at room temperature) with 3 μL of different antagonist concentrations and then treated with 3 μL of a fixed dose of NECA. After another 10 minutes of incubation various luminescence reads were performed at different incubation times.

[4] = biological target: T4, human A3R (Homo sapiens, UniProt P0DMS8); assay: Displacement of specific [3H]-HEMADO binding at human A3R expressed in CHO cells; settings: [3H]-HEMADO displacement, means ± SE, read-out: hA3R (Ki nM)
T4 construct: expressed in transfected cells; host or cells: CHO cells
T4 sequence (P0DMS8 1-318): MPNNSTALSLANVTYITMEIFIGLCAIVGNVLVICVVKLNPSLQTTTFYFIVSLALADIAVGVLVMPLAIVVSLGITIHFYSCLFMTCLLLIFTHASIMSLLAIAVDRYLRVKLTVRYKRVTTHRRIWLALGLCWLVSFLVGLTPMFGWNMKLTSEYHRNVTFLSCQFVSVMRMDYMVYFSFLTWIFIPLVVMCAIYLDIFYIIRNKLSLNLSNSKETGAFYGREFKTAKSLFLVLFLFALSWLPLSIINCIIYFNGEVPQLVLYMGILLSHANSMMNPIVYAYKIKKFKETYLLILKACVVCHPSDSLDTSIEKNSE

Compound: COC(=O)c1c(C(=O)OC)c2cc(C(=O)OC(C)C)ccn2c1C(=O)c1ccccc1 [KNV-ISP1, 7-Isopropyl 1,2-dimethyl 3-benzoylindolizine-1,2,7-tricarboxylate]
- Ki [1]: 1640 ± 37 nM
- Ki [2]: 2690 ± 631 nM
- IC50 [3]: > 30000 nM
- Ki [4]: 2200 ± 313 nM

Compound: CCOC(=O)c1cc(C(=O)c2ccccc2)n2ccc(C(=O)OC(C)C)cc12 [KNV-ISP2, 1-Ethyl 7-isopropyl 3-benzoylindolizine-1,7-dicarboxylate]
- Ki [1]: 7050 ± 706 nM
- Ki [2]: > 30000 nM
- IC50 [3]: > 30000 nM
- Ki [4]: 3640 ± 837 nM

Compound: COC(=O)c1c(C(=O)OC)c2cc(C(=O)OC(C)C)ccn2c1C(=O)c1ccc(F)cc1 [KNV-ISP3, 7-Isopropyl 1,2-dimethyl 3-(4-fluorobenzoyl)indolizine-1,2,7-tricarboxylate]
- Ki [1]: 2710 ± 388 nM
- Ki [2]: 3950 ± 695 nM
- IC50 [3]: > 30000 nM
- Ki [4]: 1400 ± 348 nM

Compound: CCOC(=O)c1cc(C(=O)c2ccc(F)cc2)n2ccc(C(=O)OC(C)C)cc12 [KNV-ISP4, 1-Ethyl 7-isopropyl 3-(4-fluorobenzoyl)indolizine-1,7-dicarboxylate]
- Ki [1]: 6980 ± 577 nM
- Ki [2]: > 30000 nM
- IC50 [3]: > 30000 nM
- Ki [4]: 665 ± 26 nM

Compound: COC(=O)c1c(C(=O)OC)c2cc(C(=O)OC(C)C)ccn2c1C(=O)c1ccc(Cl)cc1 [KNV-ISP5, 7-Isopropyl 1,2-dimethyl 3-(4-chlorobenzoyl)indolizine-1,2,7-tricarboxylate]
- Ki [1]: 3712 ± 12 nM
- Ki [2]: 7400 ± 833 nM
- IC50 [3]: > 30000 nM
- Ki [4]: 7597 ± 29 nM

Compound: CCOC(=O)c1cc(C(=O)c2ccc(Cl)cc2)n2ccc(C(=O)OC(C)C)cc12 [KNV-ISP6, 1-Ethyl 7-isopropyl 3-(4-chlorobenzoyl)indolizine-1,7-dicarboxylate]
- Ki [1]: > 30000 nM
- Ki [2]: > 30000 nM
- IC50 [3]: > 30000 nM
- Ki [4]: 14300 ± 480 nM

Compound: COC(=O)c1c(C(=O)OC)c2cc(C(=O)OC(C)C)ccn2c1C(=O)c1ccc(Br)cc1 [KNV-ISP7, 7-Isopropyl 1,2-dimethyl 3-(4-bromobenzoyl)indolizine-1,2,7-tricarboxylate]
- Ki [1]: 5410 ± 711 nM
- Ki [2]: 14900 ± 3750 nM
- IC50 [3]: > 30000 nM
- Ki [4]: 1220 ± 339 nM

Compound: CCOC(=O)c1cc(C(=O)c2ccc(Br)cc2)n2ccc(C(=O)OC(C)C)cc12 [KNV-ISP8, 1-Ethyl 7-isopropyl 3-(4-bromobenzoyl)indolizine-1,7-dicarboxylate]
- Ki [1]: > 30000 nM
- Ki [2]: > 30000 nM
- IC50 [3]: > 30000 nM
- Ki [4]: 1680 ± 283 nM

Compound: COC(=O)c1c(C(=O)OC)c2cc(C(=O)OC(C)C)ccn2c1C(=O)c1ccc(C#N)cc1 [KNV-ISP9, 7-Isopropyl 1,2-dimethyl 3-(4-cyanobenzoyl)indolizine-1,2,7-tricarboxylate]
- Ki [1]: > 30000 nM
- Ki [2]: 10300 ± 1340 nM
- IC50 [3]: > 30000 nM
- Ki [4]: 6210 ± 338 nM

Compound: CCOC(=O)c1cc(C(=O)c2ccc(C#N)cc2)n2ccc(C(=O)OC(C)C)cc12 [KNV-ISP10, 1-Ethyl 7-isopropyl 3-(4-cyanobenzoyl)indolizine-1,7-dicarboxylate]
- Ki [1]: > 30000 nM
- Ki [2]: > 30000 nM
- IC50 [3]: > 30000 nM
- Ki [4]: 7670 ± 1730 nM

Compound: COC(=O)c1c(C(=O)OC)c2cc(C(=O)OC(C)C)ccn2c1C(=O)c1ccc(C)cc1 [KNV-ISP11, 7-Isopropyl 1,2-dimethyl 3-(4-methylbenzoyl)indolizine-1,2,7-tricarboxylate]
- Ki [1]: 692 ± 41 nM
- Ki [2]: 2921 ± 13 nM
- IC50 [3]: > 30000 nM
- Ki [4]: 1600 ± 14 nM
